Experimental findings from US20230398130A1, “METHODS AND COMPOSITIONS FOR DIFFERENTIATING STEM CELLS” (Massachusetts Institute of Technology, priority 2020, published 2023) are described below.

Assay [1] concerns ISC-enriched organoids. The assay can be described thus: Primary screen, 384-well 2.5-D organoid differentiation (ENR+CD, 6 days): carbachol-induced lysozyme secretion (LYZ.S). The note with it: vs plate median; for Dose.FC.LYZ.S (log 2 fold change): primary screen. Format: cell-based, murine. The text has this: (§1) High-throughput screening.
In assay [2] the test system is ISC-enriched organoids. The assay can be described thus: Primary screen, 384-well 2.5-D organoid differentiation (ENR+CD, 6 days, Target Selective Inhibitor Library, vs whole-plate median): ATP (CellTiter-Glo 3D, CTG). Conditions: for Dose.FC.CTG (log 2 fold change, ATP) / Dose.FC.CTG (log 2 fold change): vs plate median. (In general: Cellular ATP, detected with luciferase, serves as a proxy for viable cell number.)

Assay [3] deals with ISC-enriched organoids. The assay can be described thus: Primary screen, 384-well 2.5-D organoid differentiation (ENR+CD, 6 days): basal lysozyme secretion (LYZ.NS). Format: cell-based, murine. Conditions: for Dose.FC.LYZ.NS (log 2 fold change, basal lysozyme secretion) / Dose.FC.LYZ.NS (log 2 fold change): vs plate median.
Description: as §1

Regarding `Nc1nc(N)c2nc(-c3cccc(O)c3)c(-c3cccc(O)c3)nc2n1` [TG100-115], the “Dose.FC.LYZ.S (log 2 fold change, carbachol-induced lysozyme secretion)” value in the assay on ISC-enriched organoids [1] (dose 0.08 uM) is recorded as 0.073; in the assay with ISC-enriched organoids [1] (dose 0.40 uM), 0.032; in the assay on ISC-enriched organoids [1] (dose 2.00 uM), −0.019; with ISC-enriched organoids [1] (dose 10.00 uM) it was −0.100. In addition, the “Z.CTG (standard z score)” value in the assay on ISC-enriched organoids [2] (dose 0.08 uM) is −0.611; in the assay with ISC-enriched organoids [2] (dose 0.40 uM), 0.158; in the assay on ISC-enriched organoids [2] (dose 2.00 uM) it was −0.031; in the assay on ISC-enriched organoids [2] (dose 10.00 uM) it was −0.277. Further, the “Dose.FC.CTG (log 2 fold change, ATP)” value with ISC-enriched organoids [2] (dose 0.08 uM) is −0.256; in the assay with ISC-enriched organoids [2] (dose 0.40 uM) it was 0.066; in the assay with ISC-enriched organoids [2] (dose 2.00 uM), −0.013; in the assay with ISC-enriched organoids [2] (dose 10.00 uM), −0.116. The “Z.LYZ.NS (standard z score)” value with ISC-enriched organoids [3] (dose 0.08 uM) is 1.812; with ISC-enriched organoids [3] (dose 0.40 uM), −0.223; in the assay on ISC-enriched organoids [3] (dose 2.00 uM) it was 0.025; with ISC-enriched organoids [3] (dose 10.00 uM), −0.223. Further, the “Dose.FC.LYZ.NS (log 2 fold change, basal lysozyme secretion)” value with ISC-enriched organoids [3] (dose 0.08 uM) was 0.208; in the assay with ISC-enriched organoids [3] (dose 0.40 uM), −0.026; in the assay with ISC-enriched organoids [3] (dose 2.00 uM) it was 0.003; with ISC-enriched organoids [3] (dose 10.00 uM), −0.026.

Consider `NC(=O)Nc1sc(-c2ccc(F)cc2)cc1C(N)=O` [TPCA-1], for which the “Dose.FC.LYZ.S (log 2 fold change, carbachol-induced lysozyme secretion)” value with ISC-enriched organoids [1] (dose 0.08 uM) is listed as 0.041; with ISC-enriched organoids [1] (dose 0.40 uM), −0.029; with ISC-enriched organoids [1] (dose 2.00 uM), −0.054; in the assay on ISC-enriched organoids [1] (dose 10.00 uM), −0.294. In addition, the “Z.CTG (standard z score)” value is −0.146 in the assay on ISC-enriched organoids [2] (dose 0.08 uM), −0.010 in the assay on ISC-enriched organoids [2] (dose 0.40 uM), −0.012 in the assay on ISC-enriched organoids [2] (dose 2.00 uM) and −1.269 in the assay on ISC-enriched organoids [2] (dose 10.00 uM). The “Dose.FC.CTG (log 2 fold change, ATP)” value is −0.061 with ISC-enriched organoids [2] (dose 0.08 uM), −0.004 with ISC-enriched organoids [2] (dose 0.40 uM), −0.005 with ISC-enriched organoids [2] (dose 2.00 uM) and −0.531 in the assay with ISC-enriched organoids [2] (dose 10.00 uM). For the same compound, the “Z.LYZ.NS (standard z score)” value in the assay on ISC-enriched organoids [3] (dose 0.08 uM) is on record as 0.627; in the assay with ISC-enriched organoids [3] (dose 0.40 uM), −0.413; with ISC-enriched organoids [3] (dose 2.00 uM), −0.514; with ISC-enriched organoids [3] (dose 10.00 uM), −1.711. In addition, the “Dose.FC.LYZ.NS (log 2 fold change, basal lysozyme secretion)” value with ISC-enriched organoids [3] (dose 0.08 uM) was 0.072; with ISC-enriched organoids [3] (dose 0.40 uM), −0.047; in the assay with ISC-enriched organoids [3] (dose 2.00 uM), −0.059; in the assay on ISC-enriched organoids [3] (dose 10.00 uM) it was −0.197.

As to `Nc1cccc(-c2cc3c(Oc4cccc(O)c4)ncnc3[nH]2)c1` [TWS119], the “Dose.FC.LYZ.S (log 2 fold change, carbachol-induced lysozyme secretion)” value in the assay with ISC-enriched organoids [1] (dose 0.08 uM) is 0.207; in the assay on ISC-enriched organoids [1] (dose 0.40 uM), 0.142; in the assay with ISC-enriched organoids [1] (dose 2.00 uM), 0.044; with ISC-enriched organoids [1] (dose 10.00 uM), −0.283. The “Z.CTG (standard z score)” value is given as 0.784 with ISC-enriched organoids [2] (dose 0.08 uM), 0.796 in the assay on ISC-enriched organoids [2] (dose 0.40 uM), 0.169 in the assay with ISC-enriched organoids [2] (dose 2.00 uM) and −2.866 in the assay on ISC-enriched organoids [2] (dose 10.00 uM). For the same compound, the “Dose.FC.CTG (log 2 fold change, ATP)” value with ISC-enriched organoids [2] (dose 0.08 uM) was 0.328; in the assay with ISC-enriched organoids [2] (dose 0.40 uM), 0.333; in the assay with ISC-enriched organoids [2] (dose 2.00 uM), 0.071; in the assay with ISC-enriched organoids [2] (dose 10.00 uM), −1.200. For the same compound, the “Z.LYZ.NS (standard z score)” value in the assay on ISC-enriched organoids [3] (dose 0.08 uM) was 0.820; in the assay on ISC-enriched organoids [3] (dose 0.40 uM), 0.327; in the assay on ISC-enriched organoids [3] (dose 2.00 uM), 0.304; with ISC-enriched organoids [3] (dose 10.00 uM) it was −2.027. Moreover, the “Dose.FC.LYZ.NS (log 2 fold change, basal lysozyme secretion)” value with ISC-enriched organoids [3] (dose 0.08 uM) is recorded as 0.094; in the assay with ISC-enriched organoids [3] (dose 0.40 uM), 0.038; in the assay on ISC-enriched organoids [3] (dose 2.00 uM), 0.035; in the assay with ISC-enriched organoids [3] (dose 10.00 uM) it was −0.233.

Regarding `COc1cc2c(N3CCN(C(=O)Nc4ccc(OC(C)C)cc4)CC3)ncnc2cc1OCCCN1CCCCC1` [Tandutinib (MLN518)], the “Dose.FC.LYZ.S (log 2 fold change)” value in the assay on ISC-enriched organoids [1] (Dose 0.08 uM) came out at 0.145; with ISC-enriched organoids [1] (Dose 0.40 uM), 0.178; in the assay on ISC-enriched organoids [1] (Dose 2.00 uM) it was 0.093; in the assay with ISC-enriched organoids [1] (Dose 10.00 uM), 0.100. Moreover, the “Z.CTG (standard z score)” value with ISC-enriched organoids [2] (Dose 0.08 uM, primary screen) amounted to 1.397; in the assay on ISC-enriched organoids [2] (Dose 0.40 uM, primary screen), 0.845; with ISC-enriched organoids [2] (Dose 2.00 uM, primary screen), 0.856; in the assay on ISC-enriched organoids [2] (Dose 10.00 uM, primary screen), 1.401. The “Dose.FC.CTG (log 2 fold change)” value in the assay on ISC-enriched organoids [2] (Dose 0.08 uM, primary screen) was 0.585; in the assay on ISC-enriched organoids [2] (Dose 0.40 uM, primary screen) it was 0.354; in the assay with ISC-enriched organoids [2] (Dose 2.00 uM, primary screen) it was 0.358; with ISC-enriched organoids [2] (Dose 10.00 uM, primary screen) it was 0.586. Further, the “Z.LYZ.NS (standard z score)” value is reported as 0.828 in the assay with ISC-enriched organoids [3] (Dose 0.08 uM, primary screen); 1.066 with ISC-enriched organoids [3] (Dose 0.40 uM, primary screen); 1.012 with ISC-enriched organoids [3] (Dose 2.00 uM, primary screen); 0.407 in the assay with ISC-enriched organoids [3] (Dose 10.00 uM, primary screen). For the same compound, the “Dose.FC.LYZ.NS (log 2 fold change)” value is recorded as 0.095 in the assay with ISC-enriched organoids [3] (Dose 0.08 uM, primary screen); 0.122 in the assay with ISC-enriched organoids [3] (Dose 0.40 uM, primary screen); 0.116 with ISC-enriched organoids [3] (Dose 2.00 uM, primary screen); 0.047 in the assay on ISC-enriched organoids [3] (Dose 10.00 uM, primary screen).
